Values joined by “and” are separate entries in the source; they are usually repeats but may differ in a detail not shown here. Equal entries are not always repeated.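 Cultured in 96-well plates, cells were exposed to test compound for 48 hours across five concentrations. GI50 is the concentration that inhibits growth by half. The concentration for full growth arrest is given as TGI.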 Where a SMILES comes first, the peptide text is derived from it. Bridges are numbered along the chain shown (N, C = ends). [ ]: non-standard residue; d: D form. aThr = C[C@H](O)[C@H](N)C(=O)O
Key:
Assay in all cases: inhibition of tumour cell growth, NCI panel, 48 h
ACHN renal = tested on: ACHN renal
CCRF-CEM leukemia = tested on: CCRF-CEM leukemia
DU-145 prostate = tested on: DU-145 prostate
MOLT-4 leukemia = tested on: MOLT-4 leukemia
NCI-H460 lung = tested on: NCI-H460 lung
OVCAR-4 ovarian = tested on: OVCAR-4 ovarian
TK-10 renal = tested on: TK-10 renal
SNB-75 CNS = tested on: SNB-75 CNS

| SMILES | GI50 (ACHN renal) | TGI (ACHN renal) | TGI (CCRF-CEM leukemia) [µM] | TGI (DU-145 prostate) | TGI (MOLT-4 leukemia) [µM] | TGI (NCI-H460 lung) | GI50 (OVCAR-4 ovarian) | TGI (OVCAR-4 ovarian) | GI50 (TK-10 renal) | TGI (TK-10 renal) | GI50 (DU-145 prostate) | GI50 (MOLT-4 leukemia) [µM] | GI50 (NCI-H460 lung) | GI50 (SNB-75 CNS) | TGI (SNB-75 CNS) | GI50 (CCRF-CEM leukemia) [µM] |
| --- | --- | --- | --- | --- | --- | --- | --- | --- | --- | --- | --- | --- | --- | --- | --- | --- |
| COC12C(COC(=O)NCCO)C3=C(C(=O)C(C)=C(N)C3=O)N1CC1NC12 (centres undefined) | 13.3 µM | 142 µM | > 264 | 236 µM | > 264 | 30.7 µM and 49.4 µM | 53.2 µM | 119 µM | 66.8 µM | > 264 µM | – | – | – | – | – | – |
| COCCOC1=C(Cl)C(=O)c2ccccc2C1=O | 1.88 µM | 3.59 µM | – | 10.7 µM | 42 | 17.3 µM | 2.17 µM | 4.68 µM | 2.83 µM | 10.8 µM | 3.1 µM | 1.81 | 3.34 µM | 2.75 µM | 10.1 µM | – |
| CC(=O)Oc1c(C(=O)[O-])cc(C(C)C)cc1C(C)C.CC(=O)Oc1c(C(=O)[O-])cc(C(C)C)cc1C(C)C.CC(=O)Oc1c(C(=O)[O-])cc(C(C)C)cc1C(C)C.CC(=O)Oc1c(C(=O)[O-])cc(C(C)C)cc1C(C)C.[Cu+2].[Cu+2] | 75.2 µM | > 100 µM | 53.7 | > 100 µM | > 100 | > 100 µM | 42.9 µM | 97.1 µM | 33.7 µM | > 100 µM | 34.2 µM | 74.9 | 34.8 µM | 34.3 µM | 77.6 µM | 20.5 |
| Cc1cnc(C(=O)NNc2nc3sc4c(c3c(=O)[nH]2)C(C)CCC4)cn1 (centres undefined) | 0.55 µM | 11 µM | > 100 | 80.7 µM | 13.4 | 12.9 µM | 0.449 µM | 12.6 µM | 1.99 µM | 39.7 µM | 1.43 µM | 0.676 | 0.545 µM | 0.259 µM | 15.1 µM | 0.671 |
| [O]=[V]([OH])([OH])[OH] | > 100 µM | > 100 µM | > 100 | > 100 µM | > 100 | > 100 µM | 54.2 µM | > 100 µM | > 100 µM | > 100 µM | > 100 µM | > 100 | > 100 µM | > 100 µM | > 100 µM | > 100 |
| CCSCC1CC(O)(c2ccccc2)C(c2ccccc2)C(c2ccc(F)cc2)O1 (centres undefined) | 2.22 µM | 5.54 µM | 32.1 | 6.99 µM | 4.91 | 4.01 µM | 2.41 µM | 8.04 µM | 2.6 µM | 7.28 µM | 2.75 µM | 1.61 | 1.83 µM | 1.52 µM | 3.67 µM | 3.15 |
| Cc1ccc(S(=O)(=O)NCCCCC(N)C(=O)O)cc1 (centres undefined) | – | > 100 µM | > 100 | > 100 µM | > 100 | > 100 µM | – | > 100 µM | – | – | – | – | – | – | > 100 µM | – |
| Cc1ccc(NC(=O)c2cc(S(=O)(=O)Nc3nnc(-c4ccccc4)c(-c4ccccc4)n3)c(SCc3ccccc3)cc2Cl)cc1 | 17 µM | 31.3 µM | > 100 | 37.9 µM | > 100 | > 100 µM | 25.7 µM | 92.2 µM | 18.4 µM | 40.6 µM | 20 µM | > 100 | 26.4 µM | – | – | 49.5 |
| CC(C)C[C@@H]1NC(=O)[C@@H]2CCCN2C(=O)[C@@H]2CCCN2C(=O)[C@H](CC(C)C)NC(=O)[C@H](CO)NC(=O)[C@H](CCCCN)NC(=O)[C@H]([C@H](C)O)NC(=O)[C@@H]2CSSC[C@@H](NC1=O)C(=O)N[C@@H](Cc1ccccc1)C(=O)N1CCC[C@H]1C(=O)N[C@@H](CC(=O)O)C(=O)NCC(=O)N[C@@H](CCCN=C(N)N)C(=O)N2 (cyclo(C[aThr]KSLPPL[dC]FPDGR); disulfide 1-9) | > 50 µM | > 50 µM | > 50 | > 50 µM | > 50 | > 50 µM | > 50 µM | > 50 µM | > 50 µM | > 50 µM | > 50 µM | > 50 | > 50 µM | – | – | > 50 |
| COc1cc2nnc3c4cccnc4[nH]c3c2cc1OC | 0.298 µM and 0.333 µM | 3.54 µM and 1.52 µM | – | 18.3 µM and 5.11 µM | – | 12.9 µM and 8.63 µM | 1.95 µM and 1.6 µM | 50 µM and > 100 µM | 10.3 µM and 2.38 µM | 50 µM and 7.83 µM | 4.32 µM and 2.1 µM | – | 2.84 µM and 2.46 µM | 2.35 µM and 1.48 µM | 21.9 µM and 7.45 µM | – |
| COc1cc(OC)c(OC)cc1/C=C/c1nc2ccccc2s1 | – | > 100 µM | > 100 | > 100 µM | > 100 | > 100 µM | – | – | – | > 100 µM | – | – | – | – | > 100 µM | – |
| CCc1ccc(Nc2cc(C)c3ccc(O)cc3n2)cc1 | 5.82 µM | 19.5 µM | – | 28.1 µM | 19 | 22 µM | 12.4 µM | 30.9 µM | 14.1 µM | 27.8 µM | 12.1 µM | 3.6 | 4.92 µM | 11.3 µM | 24.8 µM | – |
| Cc1cccc(Cn2cc(CO)c3cnccc32)c1 | > 100 µM | > 100 µM | – | > 100 µM | – | > 100 µM | 78.3 µM | > 100 µM | 64.7 µM | > 100 µM | > 100 µM | – | 57.5 µM | 69.4 µM | > 100 µM | – |
| O=C(c1cccs1)c1c(C(F)(F)F)n([O-])c2cc(Cl)c(Cl)cc2[n+]1=O | 0.423 µM | 0.853 µM | 0.0617 | 2.68 µM | > 100 | 4.07 µM | 1.97 µM | 4.25 µM | 1.55 µM | 2.95 µM | 0.872 µM | – | 1.39 µM | – | – | < 0.0387 |
| O=C(Nc1ccc(OC(F)(F)Cl)cc1)c1cnc(N2CC[C@@H](O)C2)c(-c2ccn[nH]2)c1 | 5.03 µM | 28.3 µM | 43.2 | 43.3 µM | 31.7 | 25.4 µM | 7.07 µM | 43.5 µM | – | – | 13.2 µM | 9.23 | 10.1 µM | 12.7 µM | 26.5 µM | 11.3 |
| CSc1nc2nc(-c3ccccc3)c(C)c-2c2n1C(C)C(=O)N2 (centres undefined) | 38.1 µM | > 100 µM | – | > 100 µM | > 100 | > 100 µM | 40.1 µM | > 100 µM | 38.1 µM | > 100 µM | 51.9 µM | 40.3 | 32.4 µM | 43.2 µM | > 100 µM | – |
